Assay results reported in patent US7423122B2, “N-terminal and C-terminal markers in nascent proteins” (priority 1999, dated 2008).
“And” between values parts separate entries of the source, which are not always exact repeats. Equal values may be shown once.

What was measured:
[1] = tested on: rabbit red blood cells (rRBCs); assay type: cell-based
[2] = tested on: E. coli T7 S30 transcription/translation extract; assay type: biochemical
[3] = tested on: E. coli S30 translation mixtures; assay type: biochemical
[4] = tested on: E. coli T7 S30 transcription/translation extract; assay type: biochemical; remark: listed apart in the source
α-hemolysin = α-hemolysin (Staphylococcus aureus, UniProt P09616)
Chain of α-hemolysin (P09616 26-319, looked up, natural form): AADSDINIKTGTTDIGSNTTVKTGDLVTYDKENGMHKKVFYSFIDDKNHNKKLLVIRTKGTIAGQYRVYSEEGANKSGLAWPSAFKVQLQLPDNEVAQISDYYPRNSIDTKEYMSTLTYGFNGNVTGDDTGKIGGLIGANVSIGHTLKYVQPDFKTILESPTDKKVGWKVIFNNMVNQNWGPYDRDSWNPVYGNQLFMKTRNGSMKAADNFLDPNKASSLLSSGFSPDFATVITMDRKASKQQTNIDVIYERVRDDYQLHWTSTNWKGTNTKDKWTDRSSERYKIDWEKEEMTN

α-HL = α-HL (Staphylococcus aureus, UniProt P09616)
Chain of α-HL (P09616 26-319, looked up, natural form): as above

α-Hemolysin
α-Hemolysin activity [1]: 0.085 OD415 nm/μl and 0.083 OD415 nm/μl | earliest time of band detection after initiation of incubation [2]: 5 min

succinimidyl 7-amino-methyl-amino-coumarin acetate [AMCA-NHS]
detectability / incorporation of fluorescent α-HL bands [3]: very low levels of detectable fluorescent bands

Cc1c(CC(=O)ON2C(=O)CC(S(=O)(=O)O)C2=O)c(=O)oc2cc(N)ccc12 (stereo not drawn) [AMCA-sulfo-NHS, sulfosuccinimidyl 7-amino-4-methylcoumarin-3-acetate]
detectability / incorporation of fluorescent α-HL bands [3]: easily detectable bands

6-(fluorescein-5-(and-6) carboxamido)hexanoic acid, succinimidyl ester [Fluorescein (SFX)]
fluorescence of α-HL band relative to BODIPY-FL-SSE [4]: 4.6%

4,4-difluoro-5,7-dimethyl-4-bora-3a,4a-diaza-s-indacene [BODIPY-FL]
amount of alpha-hemolysin detectable (α-hemolysin): Approximately 10 ng | amount of protein detectable (α-hemolysin): 0.3 ng | amount of α-hemolysin detectable (α-hemolysin): 0.35-0.5 nanograms | smallest volume of original reaction mixture giving detectable α-HL band (α-hemolysin): 0.007 µL | molar ratio of incorporated BODIPY-FL to protein (α-HL): 0.29+/−0.03%

4,4-difluoro-5,7-dimethyl-4-bora-3a, 4a-diaza-s-indacene propionic acid, sulfosuccinimidyl ester [BODIPY-FL, SSE]
level of fluorescence of HL band compared to non-sulfonated form [4]: approximately 2 times

COc1ccc(-c2cnc(-c3cc[n+](Cc4cccc(C(=O)ON5C(=O)CCC5=O)c4)cc3)o2)cc1 [PyMPO, 1-(3-(succinimidyloxycarbonyl)benzyl)-4-(5-(4-methoxyphenyl)oxazol-2-yl) pyridininium bromide]
reduction in fluorescence compared with BODIPY-FL [4]: approximately an order of magnitude reduction in fluorescence

5-(and-6)-carboxyfluorescein, succinimidyl-ester [Fluorescein (FAM)]
fluorescence of α-HL band relative to BODIPY-FL-SSE [4]: 8.4%

6-(tetramethylrhodamine-5-(and-6)-carboxamido)hexanoic acid, succinimidyl ester [5/6-TAMRA]
fluorescence of α-HL band relative to BODIPY-FL-SSE [4]: 35%

Alexa 350-N-hydroxy-succinimide ester
detectability / incorporation of fluorescent α-HL bands [3]: seems to not incorporate as well as its neutral counterpart
